From paper PMC7155171, “Probing the Open Global Health Chemical Diversity Library for Multistage-Active Starting Points for Next-Generation Antimalarials” (ACS Infectious Diseases, 2020)
Where two headings read alike, the source gives them in different places.

Key:
[1] = test system: P. falciparum Dd2 (PfLuc) line expressing firefly luciferase, asexual blood stage; assay: microbe, parasite or virus in culture; type: cell-based, Plasmodium falciparum; settings: Plasmodium falciparum
[2] = test system: P. falciparum Dd2; assay: SYBR green I asexual blood stage proliferation assay (96 h); type: cell-based, Plasmodium falciparum; settings: Plasmodium falciparum, DD2, 11-pt dose response, 96hr
[3] = DD2, read-out: CDD P. falciparum Luciferase ABS 11-pt Reconfirmation Dose Response (48hr): IC50 (μM), 11-pt dose response, 48hr
[4] = DD2, 8-pt dose response, 96hr, read-out: CDD P. falciparum Luciferase ABS 8-pt Reconfirmation Dose Response (96hr): IC50
[5] = DD2, 8-pt dose response, 96hr, read-out: CDD P. falciparum Luciferase ABS 8-pt Reconfirmation Dose Response (96hr): Maximum inhibition (%)
[6] = DD2, 11-pt dose response, 48hr, read-out: CDD P. falciparum Luciferase ABS 11-pt Reconfirmation Dose Response (48hr): Maximum inhibition (%)
[7] = DD2, 11-pt dose response, 96hr, read-out: CDD P. falciparum Luciferase ABS 11-pt Reconfirmation Dose Response (96hr): IC50
[8] = DD2, 11-pt dose response, 96hr, read-out: CDD P. falciparum Luciferase ABS 11-pt Reconfirmation Dose Response (96hr): Maximum inhibition (%)
[9] = 96 h incubation, Dd2 luciferase, read-out: 96 hour Pfluc IC50
[10] = Sybr Green I, read-out: CDD P. falciparum Sybr Green I ABS 11-pt Reconfirmation Dose Response (96hr): IC50
[11] = Sybr Green I, read-out: CDD P. falciparum Sybr Green I ABS 11-pt Reconfirmation Dose Response (96hr): Maximum inhibition (%)
[12] = DD2, read-out: P. falciparum Luciferase ABS 11-pt Reconfirmation Dose Response (48hr): IC50, 11-pt dose response, 48hr
[13] = DD2, 8-pt dose response, 96hr, read-out: P. falciparum Luciferase ABS 8-pt Reconfirmation Dose Response (96hr): IC50
[14] = DD2, 11-pt dose response, 48hr, read-out: P. falciparum Luciferase ABS 11-pt Reconfirmation Dose Response (48hr): Maximum inhibition (%)
[15] = DD2, 11-pt dose response, 96hr, read-out: P. falciparum Luciferase ABS 11-pt Reconfirmation Dose Response (96hr): IC50
[16] = DD2, 11-pt dose response, 96hr, read-out: P. falciparum Luciferase ABS 11-pt Reconfirmation Dose Response (96hr): Maximum inhibition (%)
[17] = read-out: P. falciparum Sybr Green I ABS 11-pt Reconfirmation Dose Response (96hr): IC50
[18] = read-out: P. falciparum Sybr Green I ABS 11-pt Reconfirmation Dose Response (96hr): Maximum inhibition (%)
[19] = DD2, 8-pt dose response, 96hr, read-out: P. falciparum Luciferase ABS 8-pt Reconfirmation Dose Response (96hr): Maximum inhibition (%)

SMILES	IC50 [1, 3]	IC50 [1, 4]	Emax [1, 5]	Emax [1, 6]	IC50 [1, 7]	Emax [1, 8]	IC50 [1, 9]	IC50 [2, 10]	Emax [2, 11]	IC50 [1, 12]	IC50 [1, 13]	Emax [1, 14]	IC50 [1, 15]	Emax [1, 16]	IC50 [2, 17]	Emax [2, 18]	Emax [1, 19]
CC(NCC1CCN(CCO)CC1)c1ccc(F)c(Cl)c1 (stereo not drawn) [DDD01073649]	3.46 µM	1.04 µM	87%	94.4%	0.802 µM	99.5%	0.8 µM	1900 nM	91.9%								
CC(NCC1CCN(CCO)CC1)c1ccc(OC(F)(F)F)cc1 (stereo not drawn) [DDD01073716]	3.68 µM	0.46 µM	95.5%		0.546 µM	99.2%	0.55 µM	2880 nM	95.9%								
CC(NCC1CCN(CCO)CC1)c1cccc(Cl)c1 (stereo not drawn) [DDD01073717]	3.01 µM	0.56 µM	94.9%	93.9%	0.988 µM	99.8%		1320 nM	92.1%								
CC(NCC1CCN(CCO)CC1)c1ccc(Cl)cc1 (stereo not drawn) [DDD01073718]	2.47 µM	0.81 µM			0.695 µM	98.2%		844 nM									
CC(NCC1CCN(CCO)CC1)c1ccc(C(F)(F)F)cc1 (stereo not drawn) [DDD01073719]	4.64 µM	0.52 µM	92.5%		0.614 µM	98.9%	0.61 µM	2650 nM	92.8%								
COc1ccc(CN2CCNC(=O)CC2)cc1SC(F)(F)F [DDD01074373]										> 4.16 µM	1.28 µM	57.7%	0.735 µM	70.4%	> 4160 nM	51.3%	
CCN(CC)Cc1ccccc1NC(=O)N(C)Cc1ccccc1O [DDD01074443]	3.95 µM	0.88 µM	90%	89.7%	3.26 µM	95.8%		6280 nM	87.8%								
COCCOc1ccccc1CNCC1COC2(CCCC2)O1 (stereo not drawn) [DDD01074854]										> 12.5 µM	1.89 µM	29.8%	2.71 µM	75.6%	2130 nM	71.9%	84.3%
CCc1cc(CNCc2ccccc2N(C)C2CCN(C)CC2)on1 [DDD01074859]	> 12.5 µM	0.92 µM	83.3%	55.6%	3.22 µM	82%		9570 nM	72%								
CN1CCC(N(C)c2ccccc2CNCc2ccco2)CC1 [DDD01074928]	1.71 µM	0.27 µM	92.9%	80.4%	0.211 µM	97.1%	0.21 µM	1100 nM	94.3%								
Cc1noc(C)c1CNCc1ccccc1N(C)C1CCN(C)CC1 [DDD01074938]	> 12.5 µM	0.59 µM	91.9%	61.9%	1.55 µM	86.7%		2600 nM	85.6%								
Cc1ccc(CNCc2cccc3cccnc23)c(OC2CCOC2)c1 (stereo not drawn) [DDD01075119]	3.77 µM	0.57 µM	83.2%	87.5%	1.44 µM	98.4%		> 4160 nM	64.7%								
CC(=O)N(c1ccc(F)cc1)c1nc(CN2CCCC2C(C)C)cs1 (stereo not drawn) [DDD01075305]	6.08 µM	0.65 µM	84.5%	57.5%	2.69 µM	92.1%		> 4160 nM	62.8%								
COc1ccccc1C1(CNCc2cccc(O)c2)CCOCC1 [DDD01075721]	10.3 µM	0.85 µM	85.5%	67.7%	2.2 µM	90.3%		> 4160 nM	68.7%								
Cc1ccccc1CNCC(O)c1ccc(OC(C)C)cc1 (stereo not drawn) [DDD01076008]	3.39 µM	0.89 µM		93.9%	1.47 µM	99.7%		3770 nM									
Cc1cc(N2CCC(NC(C)Cc3ccsc3)CC2)nc(C)n1 (stereo not drawn) [DDD01076128]										2.25 µM	1.19 µM	81.4%	1.09 µM	96.6%	7780 nM	72.7%	89.6%
COCC(O)CN(C)c1ccnc2cc(Br)ccc12 (stereo not drawn) [DDD01076306]	1.81 µM	0.99 µM		97.7%	1.51 µM	99.9%		2430 nM	95.6%								
Cc1cc(NC(=O)NC2CCN(C(C)C)CC2)c2ncccc2c1 [DDD01076635]										> 12.5 µM	2.21 µM	47.1%	5.47 µM	86.3%	5300 nM	53.2%	
CN1CCN(c2ccccc2NC(=O)NCCc2ccccc2)CC1 [DDD01076697]										> 12.5 µM	1.14 µM	65.5%	> 1.39 µM	89.4%	> 12500 nM	52.5%	82.8%
Brc1cccc(C2(CNCc3cc[nH]c3)CCOCC2)c1 [DDD01076928]	1.56 µM	0.82 µM	85.7%	86.3%	0.694 µM	99.3%		5620 nM									
